Measured values: PMC9881143 (2023)

Experiments:
[1] = system: THF-II-lotiTL (RNA, riboswitch) GGCGUGGUCCGUUCAACUCGUUCCUCGAAAGAGGAACUACGGGAGACGCC; test: X-ray crystallography; conditions: co-crystal, 0.1 M sodium citrate pH 6.5, 1.5-2.5 M ammonium sulfate, 16 °C; RNA:ligand 1:5
[2] = system: THF-II-lotiTL C22G mutant (THF-II-lotiTL-C22G) (RNA, riboswitch) GGCGUGGUCCGUUCAAGUCGUUCCUCGAAAGAGGAACUACGGGAGACGCC; test: ITC; conditions: K+ 100 mM, Mg2+ (concentration not stated for this titration); 20 mM Tris-HCl pH 7.5, 1 mM TCEP, 25 °C; 0.75 mM ligand in syringe into 30 μM RNA
[3] = system: THF-II-lotiTL C22U mutant (RNA, riboswitch) GGCGUGGUCCGUUCAAUUCGUUCCUCGAAAGAGGAACUACGGGAGACGCC; test: ITC; conditions: K+ 100 mM, Mg2+ (concentration not stated for this titration); 20 mM Tris-HCl pH 7.5, 1 mM TCEP, 25 °C; 0.75 mM ligand in syringe into 30 μM RNA
[4] = system: THF-II-lotiTL U44C mutant (RNA, riboswitch) GGCGUGGUCCGUUCAACUCGUUCCUCGAAAGAGGAACCACGGGAGACGCC; test: ITC; conditions: K+ 100 mM, Mg2+ (concentration not stated for this titration); 20 mM Tris-HCl pH 7.5, 1 mM TCEP, 25 °C; 0.75 mM ligand in syringe into 30 μM RNA
[5] = system: THF-II-lotiTL U44A mutant (RNA, riboswitch) GGCGUGGUCCGUUCAACUCGUUCCUCGAAAGAGGAACAACGGGAGACGCC; test: ITC; conditions: K+ 100 mM, Mg2+ (concentration not stated for this titration); 20 mM Tris-HCl pH 7.5, 1 mM TCEP, 25 °C; 0.75 mM ligand in syringe into 30 μM RNA

| binding [1] | binding [2] | binding [3] | binding [4] | binding [5] | SMILES |
| --- | --- | --- | --- | --- | --- |
| yes | – | – | – | – | Nc1nc2[nH]ccc2c(=O)[nH]1 |
| – | no | no | no | no | Nc1nc2c(c(=O)[nH]1)N[C@@H](CNc1ccc(C(=O)N[C@@H](CCC(=O)O)C(=O)O)cc1)CN2 |
| yes | – | – | – | – | Nc1nc2c(c(=O)[nH]1)N=C([C@H](O)[C@H](O)CO)CN2 |
| yes | – | – | – | – | C[C@H](O)[C@H](O)[C@H]1CNc2nc(N)[nH]c(=O)c2N1 |
